Laboratory results published in patent US5288720A, “Angiotensin II receptor blocking 2,3,6 substituted quinazolinones” (American Cyanamid Company, priority 1993, dated 1994).

Tested on: ANGIOTENSIN II VASOPRESSOR RESPONSE
Assay: AII Challenge: blockade of angiotensin II vasopressor response in conscious SHR
Type: in vivo, rat (Conscious Male Okamoto-Aoki SHR)
Conditions: SHR n=2
In short: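 Percent blockade is derived from the systolic pressure rise in mmHg, taking each rat's own predose response as 100%. Rats were conscious male Okamoto-Aoki SHR, 16-20 weeks, ~330 g, with aortic and caval cannulas under local procaine. Compound went i.v., i.p. or orally, then angiotensin II challenges (0.05 and 0.1 ug/kg i.v.) at 30-300 min.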

[1] = 3 mg/kg i.v., AII 0.05 mcg/kg IV, 30 min post dose
[2] = 3 mg/kg i.v., AII 0.05 mcg/kg IV, 60 min post dose
[3] = 3 mg/kg i.v., AII 0.05 mcg/kg IV, 90 min post dose
[4] = 3 mg/kg i.v., AII 0.05 mcg/kg IV, 120 min post dose
[5] = 3 mg/kg i.v., AII 0.05 mcg/kg IV, 180 min post dose
[6] = 3 mg/kg i.v., AII 0.05 mcg/kg IV, 240 min post dose
[7] = 3 mg/kg i.v., AII 0.05 mcg/kg IV, 300 min post dose
[8] = 3 mg/kg i.v., AII 0.1 mcg/kg IV, 30 min post dose
[9] = 3 mg/kg i.v., AII 0.1 mcg/kg IV, 60 min post dose
[10] = 3 mg/kg i.v., AII 0.1 mcg/kg IV, 90 min post dose
[11] = 3 mg/kg i.v., AII 0.1 mcg/kg IV, 120 min post dose
[12] = 3 mg/kg i.v., AII 0.1 mcg/kg IV, 180 min post dose
[13] = 3 mg/kg i.v., AII 0.1 mcg/kg IV, 240 min post dose
[14] = 3 mg/kg i.v., AII 0.1 mcg/kg IV, 300 min post dose
[15] = 3 mg/kg p.o., AII 0.05 mcg/kg IV, 30 min post dose
[16] = 3 mg/kg p.o., AII 0.05 mcg/kg IV, 60 min post dose
[17] = 3 mg/kg p.o., AII 0.05 mcg/kg IV, 90 min post dose
[18] = 3 mg/kg p.o., AII 0.05 mcg/kg IV, 120 min post dose
[19] = 3 mg/kg p.o., AII 0.05 mcg/kg IV, 180 min post dose
[20] = 3 mg/kg p.o., AII 0.05 mcg/kg IV, 240 min post dose
[21] = 3 mg/kg p.o., AII 0.1 mcg/kg IV, 30 min post dose
[22] = 3 mg/kg p.o., AII 0.1 mcg/kg IV, 60 min post dose
[23] = 3 mg/kg p.o., AII 0.1 mcg/kg IV, 90 min post dose
[24] = 3 mg/kg p.o., AII 0.1 mcg/kg IV, 120 min post dose
[25] = 3 mg/kg p.o., AII 0.1 mcg/kg IV, 180 min post dose
[26] = 3 mg/kg p.o., AII 0.1 mcg/kg IV, 240 min post dose
[27] = 10 mg/kg p.o., AII 0.05 mcg/kg IV, 30 min post dose
[28] = 10 mg/kg p.o., AII 0.05 mcg/kg IV, 60 min post dose
[29] = 10 mg/kg p.o., AII 0.05 mcg/kg IV, 90 min post dose
[30] = 10 mg/kg p.o., AII 0.05 mcg/kg IV, 120 min post dose
[31] = 10 mg/kg p.o., AII 0.05 mcg/kg IV, 180 min post dose
[32] = 10 mg/kg p.o., AII 0.05 mcg/kg IV, 240 min post dose
[33] = 10 mg/kg p.o., AII 0.05 mcg/kg IV, 300 min post dose
[34] = 10 mg/kg p.o., AII 0.1 mcg/kg IV, 30 min post dose
[35] = 10 mg/kg p.o., AII 0.1 mcg/kg IV, 60 min post dose
[36] = 10 mg/kg p.o., AII 0.1 mcg/kg IV, 90 min post dose
[37] = 10 mg/kg p.o., AII 0.1 mcg/kg IV, 120 min post dose
[38] = 10 mg/kg p.o., AII 0.1 mcg/kg IV, 180 min post dose
[39] = 10 mg/kg p.o., AII 0.1 mcg/kg IV, 240 min post dose
[40] = 10 mg/kg p.o., AII 0.1 mcg/kg IV, 300 min post dose

CCCCc1nc2ccc(C(O)C3CCN(C)C3=O)cc2c(=O)n1Cc1ccc(-c2ccccc2-c2nn[nH]n2)cc1 (single isomer, unassigned; isomer 1) [Example 32, 2-Butyl-6-[hydroxy(1-methyl-2-oxo-3-pyrrolidinyl)methyl]-3-[[2'-(1e,uns/H/ -tetrazol-5-yl)[1,1'-biphenyl]-4-yl]methyl]-4(3H)-quinazolinone isomer 1]
% Inhibition of AII vasopressor response [1]: 100% | Average Change (systolic blood pressure response to AII) [1]: 0 mmHg | % Inhibition of AII vasopressor response [2]: 89% | Average Change (systolic blood pressure response to AII) [2]: 2.5 mmHg | % Inhibition of AII vasopressor response [3]: 89% | Average Change (systolic blood pressure response to AII) [3]: 2.5 mmHg | % Inhibition of AII vasopressor response [4]: 89% | Average Change (systolic blood pressure response to AII) [4]: 2.5 mmHg | % Inhibition of AII vasopressor response [5]: 68% | Average Change (systolic blood pressure response to AII) [5]: 7.5 mmHg | % Inhibition of AII vasopressor response [6]: 26% | Average Change (systolic blood pressure response to AII) [6]: 17.5 mmHg | % Inhibition of AII vasopressor response [7]: -13% | Average Change (systolic blood pressure response to AII) [7]: 26.5 mmHg | % Inhibition of AII vasopressor response [8]: 100% | Average Change (systolic blood pressure response to AII) [8]: 0 mmHg | % Inhibition of AII vasopressor response [9]: 96% | Average Change (systolic blood pressure response to AII) [9]: 1.5 mmHg | % Inhibition of AII vasopressor response [10]: 88% | Average Change (systolic blood pressure response to AII) [10]: 5 mmHg | % Inhibition of AII vasopressor response [11]: 94% | Average Change (systolic blood pressure response to AII) [11]: 2.5 mmHg | % Inhibition of AII vasopressor response [12]: 53% | Average Change (systolic blood pressure response to AII) [12]: 20 mmHg | % Inhibition of AII vasopressor response [13]: 24% | Average Change (systolic blood pressure response to AII) [13]: 32.5 mmHg | % Inhibition of AII vasopressor response [14]: 0% | Average Change (systolic blood pressure response to AII) [14]: 42.5 mmHg | % Inhibition of AII vasopressor response [15]: 0% | Average Change (systolic blood pressure response to AII) [15]: 32.5 mmHg | % Inhibition of AII vasopressor response [16]: 46% | Average Change (systolic blood pressure response to AII) [16]: 17.5 mmHg | % Inhibition of AII vasopressor response [17]: 62% | Average Change (systolic blood pressure response to AII) [17]: 12.5 mmHg | % Inhibition of AII vasopressor response [18]: 46% | Average Change (systolic blood pressure response to AII) [18]: 17.5 mmHg | % Inhibition of AII vasopressor response [19]: 11% | Average Change (systolic blood pressure response to AII) [19]: 29 mmHg | % Inhibition of AII vasopressor response [20]: 31% | Average Change (systolic blood pressure response to AII) [20]: 22.5 mmHg | % Inhibition of AII vasopressor response [21]: 27% | Average Change (systolic blood pressure response to AII) [21]: 27.5 mmHg | % Inhibition of AII vasopressor response [22]: 27% | Average Change (systolic blood pressure response to AII) [22]: 27.5 mmHg | % Inhibition of AII vasopressor response [23]: 40% | Average Change (systolic blood pressure response to AII) [23]: 22.5 mmHg | % Inhibition of AII vasopressor response [24]: 28% | Average Change (systolic blood pressure response to AII) [24]: 27 mmHg | % Inhibition of AII vasopressor response [25]: 13% | Average Change (systolic blood pressure response to AII) [25]: 32.5 mmHg | % Inhibition of AII vasopressor response [26]: 23% | Average Change (systolic blood pressure response to AII) [26]: 29 mmHg

CCCCc1nc2ccc(C(O)C3CCCN(C)C3=O)cc2c(=O)n1Cc1ccc(-c2ccccc2-c2nn[nH]n2)cc1 (single isomer, unassigned; isomer 1) [Example 37, 2-Butyl-6-hydroxy(1-methyl-2-oxo-3-piperidinyl)methyl]-3-[[2'-(1H-tetrazol-5-yl)[1,1'-biphenyl]-4-yl]methyl]-4(3H)-quinazolinone isomer 1]
% Inhibition of AII vasopressor response [1]: 100% | Average Change (systolic blood pressure response to AII) [1]: 0 mmHg | % Inhibition of AII vasopressor response [2]: 100% | Average Change (systolic blood pressure response to AII) [2]: 0 mmHg | % Inhibition of AII vasopressor response [3]: 100% | Average Change (systolic blood pressure response to AII) [3]: 0 mmHg | % Inhibition of AII vasopressor response [4]: 91% | Average Change (systolic blood pressure response to AII) [4]: 2.5 mmHg | % Inhibition of AII vasopressor response [5]: 55% | Average Change (systolic blood pressure response to AII) [5]: 12.5 mmHg | % Inhibition of AII vasopressor response [6]: 64% | Average Change (systolic blood pressure response to AII) [6]: 10 mmHg | % Inhibition of AII vasopressor response [7]: 36% | Average Change (systolic blood pressure response to AII) [7]: 17.5 mmHg | % Inhibition of AII vasopressor response [8]: 92% | Average Change (systolic blood pressure response to AII) [8]: 2.5 mmHg | % Inhibition of AII vasopressor response [9]: 92% | Average Change (systolic blood pressure response to AII) [9]: 2.5 mmHg | % Inhibition of AII vasopressor response [10]: 85% | Average Change (systolic blood pressure response to AII) [10]: 5 mmHg | % Inhibition of AII vasopressor response [11]: 85% | Average Change (systolic blood pressure response to AII) [11]: 5 mmHg | % Inhibition of AII vasopressor response [12]: 66% | Average Change (systolic blood pressure response to AII) [12]: 11 mmHg | % Inhibition of AII vasopressor response [13]: 23% | Average Change (systolic blood pressure response to AII) [13]: 25 mmHg | % Inhibition of AII vasopressor response [14]: 0% | Average Change (systolic blood pressure response to AII) [14]: 32.5 mmHg | % Inhibition of AII vasopressor response [15]: 53% | Average Change (systolic blood pressure response to AII) [15]: 19 mmHg | % Inhibition of AII vasopressor response [16]: 29% | Average Change (systolic blood pressure response to AII) [16]: 28.5 mmHg | % Inhibition of AII vasopressor response [17]: 29% | Average Change (systolic blood pressure response to AII) [17]: 28.5 mmHg | % Inhibition of AII vasopressor response [18]: 13% | Average Change (systolic blood pressure response to AII) [18]: 35 mmHg | % Inhibition of AII vasopressor response [19]: 0% | Average Change (systolic blood pressure response to AII) [19]: 40 mmHg | % Inhibition of AII vasopressor response [21]: -6% | Average Change (systolic blood pressure response to AII) [21]: 47.5 mmHg | % Inhibition of AII vasopressor response [22]: 30% | Average Change (systolic blood pressure response to AII) [22]: 31.5 mmHg | % Inhibition of AII vasopressor response [23]: 11% | Average Change (systolic blood pressure response to AII) [23]: 40 mmHg | % Inhibition of AII vasopressor response [24]: 22% | Average Change (systolic blood pressure response to AII) [24]: 35 mmHg | % Inhibition of AII vasopressor response [25]: 22% | Average Change (systolic blood pressure response to AII) [25]: 35 mmHg | % Inhibition of AII vasopressor response [27]: 67% | Average Change (systolic blood pressure response to AII) [27]: 17.5 mmHg | % Inhibition of AII vasopressor response [28]: 65% | Average Change (systolic blood pressure response to AII) [28]: 18.5 mmHg | % Inhibition of AII vasopressor response [29]: 62% | Average Change (systolic blood pressure response to AII) [29]: 20 mmHg | % Inhibition of AII vasopressor response [30]: 67% | Average Change (systolic blood pressure response to AII) [30]: 17.5 mmHg | % Inhibition of AII vasopressor response [31]: 57% | Average Change (systolic blood pressure response to AII) [31]: 22.5 mmHg | % Inhibition of AII vasopressor response [32]: 43% | Average Change (systolic blood pressure response to AII) [32]: 30 mmHg | % Inhibition of AII vasopressor response [33]: 52% | Average Change (systolic blood pressure response to AII) [33]: 25 mmHg | % Inhibition of AII vasopressor response [34]: 40% | Average Change (systolic blood pressure response to AII) [34]: 30 mmHg | % Inhibition of AII vasopressor response [35]: 26% | Average Change (systolic blood pressure response to AII) [35]: 37 mmHg | % Inhibition of AII vasopressor response [36]: 40% | Average Change (systolic blood pressure response to AII) [36]: 30 mmHg | % Inhibition of AII vasopressor response [37]: 55% | Average Change (systolic blood pressure response to AII) [37]: 22.5 mmHg | % Inhibition of AII vasopressor response [38]: 35% | Average Change (systolic blood pressure response to AII) [38]: 32.5 mmHg | % Inhibition of AII vasopressor response [39]: 40% | Average Change (systolic blood pressure response to AII) [39]: 30 mmHg | % Inhibition of AII vasopressor response [40]: 35% | Average Change (systolic blood pressure response to AII) [40]: 32.5 mmHg
